The source of these data is patent US20130296346A1, “DIPHENYL-AMINE DERIVATIVES: USES, PROCESS OF SYNTHESIS AND PHARMACEUTICAL COMPOSITIONS” (Faes Farma, S.A., priority 2010, published 2013).

One assay concerns B16 melanoma mouse cells. Nature of the assay: Melanoma orthotopic animal model. The assay is classed as in vivo. The note with it: 30 mg/kg intraperitoneal. Here is the method: Compound 3 dose was 30 mg/kg intraperitoneal in all of these experiments.
FIG. 5A represents a PET picture of melanoma tumor luciferase activity in vivo. The intensity of the signal is higher on tumours with more proliferative cells. […] FIG. 5C is a graph showing melanoma tumor weight after control or Compound 3 treatment. 4 different and independent experiments with n=4 animals per group were carried out.

A further assay deals with HCT-116. Nature of the assay: Apoptosis, sub-G1 peak and caspase activation. It counts as cell-based, human. The note with it: HCT-116, 10 μM. The protocol:
(§1) Induction of apoptosis in human colon cancer HCT-116 cell line by Compound 3 (FIG. 8A). The induction of apoptosis was quantitated as the percentage of cells in the sub-G1 region (hypodiplody) of cell cycle analysis. Briefly, cells (5×10^5) were centrifuged and fixed overnight in 70% ethanol at 4° C. Cells were washed 3 times with PBS, incubated for 1 h with 1 mg/ml RNaseA and 20 μg/ml propidium iodide at room temperature, and then analyzed for cell cycle with a Becton Dickinson FACSCalibur flow cytometer (San Jose, Calif.). HCT-116 cells were incubated for the indicated times with 10 μM Compound 3, and apoptosis was then quantitated as percentage of cells in the sub-G1 region in cell cycle analysis by flow cytometry. The position of the sub-G1 peak (hypodiploidy), integrated by apoptotic cells, as well as the G0/G1 and G2/M peaks are indicated by arrows. Untreated control cells were run in parallel. The percentage of cells with a DNA content less than G1 (sub-G1) is indicated in each histogram. The experiment shown is representative of three performed Expression of different apoptosis-related proteins during Compound 3 treatment (FIG. 8B), HCT-116 and SW620 cells were treated with 10 μM Compound 3 for the indicated times and analyzed by immunoblotting with specific antibodies for the indicated proteins. […]

A further assay has as its system SW620. Nature of the assay: Apoptosis, sub-G1 peak and caspase activation. The conditions noted are these: SW620, 10 μM. It counts as cell-based, human. The protocol: as §1

For `Fc1ccc(CNCCCC=C(c2ccccc2)c2ccccc2)cc1` [Compound 3, (5,5-diphenyl-pent-4-enyl)-(4-fluoro-benzyl)-amine hydrocloride], in the assay with B16 melanoma mouse cells, the “in vivo antitumor activity, melanoma” value was “potent in vivo antitumor activity”. For the same compound, the “apoptosis (sub-G1 peak, caspase activation)” value in the assay with HCT-116 and in the assay on SW620 was “induces apoptosis” each time.
